Measurements: patent US20090274739A1, “METHODS AND COMPOSITIONS FOR TREATING NEOINTIMAL HYPERPLASIA” (THE TRUSTEES OF COLUMBIA UNIVERSITY IN THE CITY OF NEW YORK, priority 2006, published 2009)

Columns and labels:
[1] = system: p70S6K and 4E-BP1 phosphorylation (mTOR substrates); test: Immunoblot of p70S6K and 4E-BP1 phosphorylation in VSMC; type: cell-based, mouse
Protocol: (§1) Western blot analysis: The cells were plated in a 100-mm culture dish in DMEM supplemented with 20% FBS for 24 h at 37° C., followed by serum starvation for 48 h. Cells were then treated with different reagents for 30 min. Cells were subsequently lysed on ice for 30 min in RIPA buffer [150 mM NaCl, 100 mM Tris (pH 8.0), 1% Triton X-100, 1% deoxycholic acid, 0.1% SDS, 5 mM EDTA, and 10 mM NaF] supplemented with 1 mM sodium vanadate, 2 mM leupeptin, 2 mM aprotinin, 1 mM phenylmethylsulfonyl fluoride (PMSF), 1 mM DTT, and 2 mM pepstatin A. After centrifugation at 14,000 rpm for 30 min, the supernatant was harvested as the total cellular protein extract, and stored at −70° C. The protein concentration was determined using Bio-Rad protein assay reagent (Richmond, Calif.). The total cellular protein extracts were separated by SDS-polyacrylamide gel electrophoresis (SDS-PAGE) and transferred to nitrocellulose membrane in 20 mM Tris-HCl (pH 8.0) containing 150 mM glycine and 20% (v/v) methanol.
Blots were washed three times in PBS buffer, followed by incubation with the appropriate HRP-linked IgG. The specific proteins in the blots were visualized using an enhanced chemiluminescence reagent (NEN, Boston, Mass.).
Starved murine VSMCs were incubated for 20 min with leptin (100 ng/ml) or 10% FBS, in the absence or presence of rapamycin (100 nmol/L).
(§2) VSMC were plated on 100-mm dishes, serum starved for 72 h in DMEM containing 0.1% FBS, and stimulated with 0.6 or 6 nM (10 or 100 ng/ml) leptin. Extracts were prepared by brief sonication in HKM buffer [40 mM HEPES-KOH (pH 7.6), 7.5 mM MgCl2, 0.5 mM DTT] or, in the case of Akt phosphorylation studies, by lysing cells on ice for 30 min in RIPA buffer. 70 μg of protein per sample were subjected to immunoblotting by standards protocols. Imaging and densitometry were performed on an Odyssey infrared system (Li-Cor, Lincoln, Neb.).

[2] = system: MAPK (p44/p42, ERK1/2) phosphorylation; test: Immunoblot of MAPK (ERK1/2, p44/p42) phosphorylation in VSMC; type: cell-based, mouse
Protocol: as §1
(§3) Membranes were blocked with 5% nonfat dried milk in PBS containing 0.05% Tween 20 and incubated with antibodies against phospho-(Thr^202/Tyr^204) p42/p44^MAPK and p42/p44^MAPK, phospho-Akt([…]) and anti-Akt, p70^S6K, 4EBP-1. Blots were washed three times in PBS buffer, followed by incubation with the appropriate HRP-linked IgG. The specific proteins in the blots were visualized using an enhanced chemiluminescence reagent (NEN, Boston, Mass.).
as §2

Akt phosphorylation = test: Immunoblot of Akt phosphorylation in VSMC; type: cell-based, mouse
Protocol: as §1, §3, §2

murine VSMC migration = test: VSMC migration, modified Boyden chamber; type: cell-based, mouse; details: leptin 6 nM
Protocol: Migration of VSMCs: Migration was measured using a modified Boyden chamber as previously described (Grinspoon S, et al., J Clin Endocrinol Metab, 1996, 81(11):3861-3). The lower chambers contained PDGF (10 ng/mL), insulin (200 nmol/L), or 0.2% BSA (negative control) in DMEM. 2×10^5 cells were loaded into the top chamber. After 6 h, non-migrating cells were scraped from the upper surface of the filter, and the lower surface of the filter was stained with HEMA 3 Stain Set (Fisher Diagnostics, Middletown, Va.). The number of migrated VSMCs was determined by counting 4 fields at 200× magnification, of constant area per well. Values are expressed as the percentage of cells migrating in response to a chemo-attractant after subtracting the negative control. Experiments were performed thrice in triplicate wells.
FIG. 5 is a graph that depicts inhibition of migration of VSMCs toward insulin by rapamycin. […]
Primary VSMC were isolated from aortic explants of WT, ob/ob, or db/db mice (46). VSMC proliferation was determined using the Cell Titre Aqueous One Solution Proliferation Assay (Promega, Madison, Wis.). Migration to PDGF-BB was assessed in a modified Boyden chamber assay (47).

[3] = mouse, in vivo
From the text: Animal Models and Drug Treatments. Wild type C57BL/6J background mice and mice deficient for leptin (C57BL/6J-Lepob; ob/ob) or the leptin receptor (C57BL/6J-m+/+Lepdb; db/db) were purchased from Charles Jackson Laboratories, Maine. Mice were obtained at ages 6-8 weeks old and average weight 15 g. Animals were fed standard rodent chow and tap water ad libitum. Procedures and animal care were approved by the Institutional Animal Care and Use Committee. Mice were subjected to femoral artery wire injury or sham injury described below 24 hr prior to starting pharmacological treatments. Sirolimus was administered by intraperitoneal injection once per day for 14 days as a suspension in 0.2% sodium carboxymethyl cellulose and 0.25% polysorbate-80; duplicate experiments were accomplished with 0.5% DMSO. […] Plasma leptin levels were measured at baseline, 3, 6, and 10 hr after leptin injection using an ELISA assay (R&D). […]
For leptin measurements, plasma was obtained by drawing 100 μL of retro-orbital whole blood into a heparinized tube and removing cells by centrifugation at 20,000 m/s^2 for 5 min. Plasma leptin levels were measured at baseline, 3, 6, and 10 h after leptin injection in WT mice or at baseline in ob/ob and db/db mice using the mouse leptin TiterZyme EIA kit (Assay Designs, Ann Arbor, Mich.).

[4] = Example 2, leptin 100 ng/ml, decreasing thereafter at 45 min

Q: What does the source list for “Leptin: recombinant leptin; hormone derived from adipose tissue, encoded by the Ob gene”?
A: phosphorylation of S6K and 4EBP-1 ([1]; Example 1, leptin 10 ng/mL, data not shown): stimulated the phosphorylation; phosphorylation of p70S6K and 4E-BP1 ([1]; Example 2, leptin 100 ng/ml): up-phosphorylated; S6K phosphorylation ([1]; Example 5, leptin 0.6 nM, data not shown): stimulated S6K phosphorylation, albeit less robustly; phosphorylation of S6K ([1]; Example 5, leptin 6 nM): stimulated the phosphorylation; phosphorylation of the p44 and p42 forms of MAPK ([2]; Example 1, leptin 10 ng/mL): stimulated the phosphorylation; time of maximum ERK1/2 phosphorylation [2, 4]: 10 min; phosphorylation of MAPK ([2]; Example 5, leptin 6 nM): stimulated; phosphorylation of Akt (on serine 473) (Akt phosphorylation; Example 1, leptin 10 ng/mL): stimulated the phosphorylation; time of maximum Akt phosphorylation (Akt phosphorylation; [4]): 10 min; Thr-308 phosphorylation of Akt (Akt phosphorylation; Example 5, leptin 6 nM): stimulated; phosphorylation of Ser-473 of Akt (Akt phosphorylation; Example 5, leptin 6 nM): stimulated the phosphorylation; PDGF-induced migration of VSMC (murine VSMC migration; WT VSMC): enhanced; PDGF-induced migration of VSMC (murine VSMC migration; db/db VSMC): not; leptin level 3 h after injection relative to untreated WT mice [3]: ~20 times; leptin level 3 hr after injection relative to untreated WT mice [3]: 15 times
